Measured values: US4810800A, “Novel imidazole dopamine beta hydroxylase inhibitors” (Merrell Dow Pharmaceuticals Inc., priority 1988, dated 1989)
pIC50: −log10 of the molar value.

How the values were obtained:
[1] = system: spontaneously hypertensive rats; assay: antihypertensive effect: blood pressure monitored continuously in spontaneously hypertensive rats after ip dosing; format: in vivo; settings: 50 mg/kg, 6 hours post dose in SHR, Mean Difference ± Standard Deviation
Protocol: The ability of the compounds of this invention to lower blood pressure can be determined in vivo using spontaneously hypertensive rats (SHR'S) according to standard and well known procedures. The test compound is administered intraperitoneally (ip) to rats and the blood pressure monitored continuously. Snce DBH is a major enzyme in the synthetic pathway of the catecholamines, it would be expected that the presence of an inhibitor would act to decrease the amount of catecholamines produced, and thereby have an antihypertensive effect. The results of the testing for this antihypertensive effect are shown in Table I (MBP is mean blood pressure).
In Vivo at 50 mg/kg, IP, 6 Hours Post Dose in SHR's*

[2] = target: T1, dopamine beta-hydroxylase (Bos taurus, UniProt P15101); assay: in vitro DBH inhibition (conversion of tyramine to octopamine; oxygen uptake by polarographic electrode); format: biochemical; settings: pH of 5, 37° C. preferably
T1 sequence (P15101 1-610): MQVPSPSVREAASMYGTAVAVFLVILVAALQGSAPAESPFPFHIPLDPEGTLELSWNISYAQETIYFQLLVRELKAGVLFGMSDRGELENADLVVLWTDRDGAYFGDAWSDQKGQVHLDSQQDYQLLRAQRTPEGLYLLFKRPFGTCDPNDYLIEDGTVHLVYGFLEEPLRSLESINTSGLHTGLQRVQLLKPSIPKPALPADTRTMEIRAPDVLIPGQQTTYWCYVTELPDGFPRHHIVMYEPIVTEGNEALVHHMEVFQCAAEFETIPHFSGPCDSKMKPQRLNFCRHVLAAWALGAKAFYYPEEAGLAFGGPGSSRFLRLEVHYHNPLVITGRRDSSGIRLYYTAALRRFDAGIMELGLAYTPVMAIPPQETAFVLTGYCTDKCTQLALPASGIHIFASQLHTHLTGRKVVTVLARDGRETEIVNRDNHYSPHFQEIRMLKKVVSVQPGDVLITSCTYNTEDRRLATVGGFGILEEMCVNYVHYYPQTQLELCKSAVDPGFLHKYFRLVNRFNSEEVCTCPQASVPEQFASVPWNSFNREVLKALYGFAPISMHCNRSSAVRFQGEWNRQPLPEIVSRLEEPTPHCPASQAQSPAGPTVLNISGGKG
Protocol: The DBH inhibitory properties of the compounds of this invention can readily be determined in vitro by standard and well known procedures for assaying conversion of tyramine to octopamine in the presence of dopamine beta-hydroxylase. Enzymatic oxygenation by DBH is determined in aqueous solution in the presence of molecular oxygen, an electron donor such as ascorbate, and the necessary cofactors for the enzyme at pH of 5 and a temperature of 20°-40° C., preferably 37° C. The test compound is added at the desired concentration, and the system is incubated. Activity is measured by measuring the oxygen uptake using a polarographic electrode and an oxygen monitor by the method of S. May, et al., J. Biol. Chem. 256, 2258 (1981). Inhibition is given in molar concentration of compound at which DBH activity was halved (IC50) when the test compounds were tested according to the above described procedure. The IC50 (expressed in micromolar units) data of some of the compounds of this invention are expressed in Table I.

Row | pIC50 [2] | SMILES | Max Change MBP (mean blood pressure) [1] [mmHg]
1 | 4.89 | NCc1nccn1Cc1cccs1 [Compound 1, 2-Aminomethyl-1-(2-thienylmethyl)-1H-imidazole] | -41 ± 14
2 | 5.33 | NC(=S)c1nccn1Cc1cccs1 [Compound 2, 1-(2-Thienylmethyl)-2-thiocarbamyl-1H-imidazole] | -25 ± 12
